Experimental findings from patent US20260250289A1, “BICYCLIC HETEROCYCLES AND THEIR USE AS WRN INHIBITORS” (Novartis AG, priority 2022, published 2026) are described below.

Assay [1] has as its system DLD1-WRN-KO cells. The assay is described as follows: Proliferation assay DLD1-WRN-KO (CellTiterGlo, off-target effects). Format: cell-based. The following applies: 96 hours, geometric mean of at least 2. In short, it runs like this: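 DLD1 cells with CRISPR knockout of WRN were exposed overnight-seeded to eight 3-fold compound dilutions (0.1% DMSO) for 96 h at 37 °C. Viability was read as ATP by CellTiterGlo luminescence against a day-0 plate, giving GI50 and residual viability at top concentration.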
A general note: ATP-based viability assays read luminescence as a measure of living cells.

The target in assay [2] is T1, WRN helicase (aa N517-P1238) (Homo sapiens, UniProt Q14191).
T1 construct: The core helicase motif of the WRN protein (aa N517-P1238) was produced for this assay; His (N); ZZ (N); 3C protease cleavage site (N); made in house; host or cells: Sf21 insect cells (baculovirus; virus and BIICs made in SF9)
The assay is described as follows: WRN ATPase assay (DNA dependent ATP hydrolysis, ADP-Glo). Format: biochemical. Particulars: 3 hours pre-incubation, 300 micromolar ATP, FLAP26 DNA; geometric mean of at least 2. In short, it runs like this:
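DNA-dependent ATP hydrolysis detected as ADP by ADP-Glo luminescence, using 300 μM ATP, 0.2 nM FLAP26 substrate and 10 nM WRN aa N517-P1238 (Tris pH 7.5 buffer, 2 mM MgCl2, 50 mM NaCl). IC50s fitted from normalized duplicate half-log dilutions; reported as geometric means of at least 2 replicates.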

The subject of assay [3] is SW48 cells. Description: Proliferation assay SW48 (CellTiterGlo). Format: cell-based. Particulars: Homo sapiens, SW48, 96 h, SW48 colon carcinoma cells, 96 hours, CellTiterGlo; geometric mean of at least 2; read-out: Proliferation Assay SW48 GI50. In short, it runs like this: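 Read-out is CellTiterGlo luminescence after 96 hours of compound exposure, with % growth calculated against day-0 and vehicle-treated ATP levels. SW48 seeded at 2,000 cells/well, dosed next day with eight 3-fold serial dilutions, 0.1% DMSO. GI50 reported as geometric mean, at least 2 replicates.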

T1 sequence (Q14191 517-1238): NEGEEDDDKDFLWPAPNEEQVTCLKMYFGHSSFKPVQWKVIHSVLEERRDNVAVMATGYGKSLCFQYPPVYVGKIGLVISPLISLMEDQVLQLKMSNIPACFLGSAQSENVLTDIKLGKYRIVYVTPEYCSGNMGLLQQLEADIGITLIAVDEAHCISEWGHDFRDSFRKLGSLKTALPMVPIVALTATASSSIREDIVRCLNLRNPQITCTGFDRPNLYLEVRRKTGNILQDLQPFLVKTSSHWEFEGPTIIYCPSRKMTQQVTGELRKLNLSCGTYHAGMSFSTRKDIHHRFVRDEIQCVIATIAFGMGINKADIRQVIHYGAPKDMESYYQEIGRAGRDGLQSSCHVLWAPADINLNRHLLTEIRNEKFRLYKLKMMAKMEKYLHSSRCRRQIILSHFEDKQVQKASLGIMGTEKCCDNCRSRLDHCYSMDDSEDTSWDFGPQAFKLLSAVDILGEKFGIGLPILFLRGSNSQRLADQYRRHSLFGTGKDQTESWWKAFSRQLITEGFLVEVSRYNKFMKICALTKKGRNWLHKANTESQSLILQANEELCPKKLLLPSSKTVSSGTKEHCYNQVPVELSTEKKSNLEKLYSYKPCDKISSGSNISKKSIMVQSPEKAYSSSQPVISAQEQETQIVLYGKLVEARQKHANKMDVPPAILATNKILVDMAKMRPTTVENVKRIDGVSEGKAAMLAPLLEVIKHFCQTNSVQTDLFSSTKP

As for `CCc1c(N2CCN(C(=O)CN)CC2)c(=O)n2nc(C3=CCC(OC)CC3)nc2n1CC(=O)Nc1ccc(C(F)(F)F)cc1` (stereo not drawn) [Example 33, 2-(5-ethyl-6-(4-glycylpiperazin-1-yl)-2-(4-methoxycyclohex-1-en-1-yl)-7-oxo-[1,2,4]triazolo[1,5-a]pyrimidin-4(7H)-yl)-N-(4-(trifluoromethyl)phenyl)acetamide], the GI50 in assay [1] was over 10 µM; in assay [3], 8 µM. Besides, in assay [2], the IC50 (in general, the midpoint of a concentration-inhibition curve) amounted to 1 µM.

On to `Cc1c(N2CCN(C(=O)c3c[nH]c(=O)cn3)CC2)c(=O)n2nc(N3CCOCC3)nc2n1CC(=O)Nc1ccc(C(F)(F)F)cc1` [Example 166, 2-(5-methyl-2-morpholino-7-oxo-6-(4-(5-oxo-4,5-dihydropyrazine-2-carbonyl)piperazin-1-yl)-[1,2,4]triazolo[1,5-a]pyrimidin-4(7H)-yl)-N-(4-(trifluoromethyl)phenyl)acetamide], for which the GI50 in assay [1] and in assay [3] was over 10 µM in each case. Inhibition in assay [2] was half-maximal at 0.1 µM (IC50).

In the case of `CCc1c(N2CCN(C(=O)c3c(O)ccc4ncccc34)CC2)c(=O)n2nc(C3=CCOCC3)nc2n1CC(=O)Nc1ccc(C(F)(F)F)cc1C` [Example 18, 2-(2-(3,6-dihydro-2H-pyran-4-yl)-5-ethyl-6-(4-(6-hydroxyquinoline-5-carbonyl)piperazin-1-yl)-7-oxo-[1,2,4]triazolo[1,5-a]pyrimidin-4(7H)-yl)-N-(2-methyl-4-(trifluoromethyl)phenyl)acetamide], the figures for the GI50 in assay [1] and in assay [3] were over 10 µM and 0.2 µM, respectively. The same molecule showed an IC50 in assay [2] of 0.06 µM.

Take `CC(=O)N1CCN(c2c(C)n(CC(=O)Nc3ccc(C(F)(F)F)cc3)c3nc(C4=CCC(F)(F)CC4)nn3c2=O)CC1` [Example 118, 2-(6-(4-acetylpiperazin-1-yl)-2-(4,4-difluorocyclohex-1-en-1-yl)-5-methyl-7-oxo-[1,2,4]triazolo[1,5-a]pyrimidin-4(7H)-yl)-N-(4-(trifluoromethyl)phenyl)acetamide]: the GI50 in assay [1] is over 10 µM; in assay [3], 9 µM. The same molecule returned an IC50 in assay [2] of 0.6 µM.

As to `CCc1c(N2CCN(C(=O)c3c(F)ccc(F)c3O)CC2)c(=O)n2nc(C3=CCOCC3)nc2n1CC(=O)Nc1ccc(C(F)(F)F)cc1C` [Example 68, 2-(6-(4-(3,6-difluoro-2-hydroxybenzoyl)piperazin-1-yl)-2-(3,6-dihydro-2H-pyran-4-yl)-5-ethyl-7-oxo-[1,2,4]triazolo[1,5-a]pyrimidin-4(7H)-yl)-N-(2-methyl-4-(trifluoromethyl)phenyl)acetamide], the GI50 is over 10 µM in assay [1] and 0.1 µM in assay [3]. The IC50 in assay [2] is 0.02 µM.

Consider `CCc1c(N2CCN(C(=O)c3c(O)ccc4cccnc34)CC2)c(=O)n2nc(C3=CCOCC3)nc2n1CC(=O)Nc1ccc(C(F)(F)F)cc1` [Example 14, 2-(2-(3,6-dihydro-2H-pyran-4-yl)-5-ethyl-6-(4-(7-hydroxyquinoline-8-carbonyl)piperazin-1-yl)-7-oxo-[1,2,4]triazolo[1,5-a]pyrimidin-4(7H)-yl)-N-(4-(trifluoromethyl)phenyl)acetamide], for which the GI50 in assay [1] was over 10 µM; in assay [3], 0.2 µM. Inhibition in assay [2] was half-maximal at 0.04 µM (IC50).

Take `CC(=O)N1CCN(c2c(C)n(CC(=O)Nc3cc(F)c(C(F)F)cc3C)c3nc(C4=CCOCC4)nn3c2=O)CC1` [Example 94, 2-(6-(4-acetylpiperazin-1-yl)-2-(3,6-dihydro-2H-pyran-4-yl)-5-methyl-7-oxo-[1,2,4]triazolo[1,5-a]pyrimidin-4(7H)-yl)-N-(4-(difluoromethyl)-5-fluoro-2-methylphenyl)acetamide]: the results for the GI50 in assay [1] and in assay [3] were over 10 µM and 3 µM, respectively. In assay [2], this molecule gave an IC50 of 0.7 µM.

As for `CCc1c(N2CCN(C(=O)c3nsnc3O)CC2)c(=O)n2nc(C3=CCOCC3)nc2n1CC(=O)Nc1ccc(C(F)(F)F)cc1Cl` [Example 66, N-(2-chloro-4-(trifluoromethyl)phenyl)-2-(2-(3,6-dihydro-2H-pyran-4-yl)-5-ethyl-6-(4-(4-hydroxy-1,2,5-thiadiazole-3-carbonyl)piperazin-1-yl)-7-oxo-[1,2,4]triazolo[1,5-a]pyrimidin-4(7H)-yl)acetamide], the GI50 in assay [1] is over 10 µM; in assay [3], 0.3 µM. In addition, in assay [2], inhibition was half-maximal at 0.03 µM (IC50).

In the case of `CC(=O)N1CCN(c2c(C)n(CC(=O)Nc3ccc(Cl)cc3)c3nc(N4CCN(C(=O)OC(C)(C)C)CC4)nn3c2=O)CC1` [Example 158, tert-butyl 4-(6-(4-acetylpiperazin-1-yl)-4-(2-((4-chlorophenyl)amino)-2-oxoethyl)-5-methyl-7-oxo-4,7-dihydro-[1,2,4]triazolo[1,5-a]pyrimidin-2-yl)piperazine-1-carboxylate], the GI50 worked out at 1 µM in assay [1] and 3 µM in assay [3]. Further, in assay [2], half-maximal inhibition (IC50) required 0.3 µM.

In the case of `CC(=O)N1CCN(c2c(C(C)C)n(CC(=O)Nc3ccc(C(F)(F)F)cc3)c3nc(C4=CCOCC4)nn3c2=O)CC1` [Example 162, 2-(6-(4-acetylpiperazin-1-yl)-2-(3,6-dihydro-2H-pyran-4-yl)-5-isopropyl-7-oxo-[1,2,4]triazolo[1,5-a]pyrimidin-4(7H)-yl)-N-(4-(trifluoromethyl)phenyl)acetamide], the GI50 in assay [1] was over 10 µM; in assay [3], 3 µM. The molecule also yielded an IC50 in assay [2] of 0.9 µM.

On to `CC(=O)N1CCN(c2c(C)n(CC(=O)Nc3ccc(C(F)(F)F)cc3)c3nc(C4=CCCOC4)nn3c2=O)CC1` [Example 126, 2-(6-(4-acetylpiperazin-1-yl)-2-(5,6-dihydro-2H-pyran-3-yl)-5-methyl-7-oxo-[1,2,4]triazolo[1,5-a]pyrimidin-4(7H)-yl)-N-(4-(trifluoromethyl)phenyl)acetamide], for which the GI50 was over 10 µM in assay [1] and 4 µM in assay [3]. The same molecule displayed an IC50 in assay [2] of 0.8 µM.

For `CC(=O)N1CCN(c2c(C)n(CC(=O)Nc3ccc(C(F)(F)F)cc3)c3nc(-c4cnc(C)o4)nn3c2=O)CC1` [Example 135, 2-(6-(4-acetylpiperazin-1-yl)-5-methyl-2-(2-methyloxazol-5-yl)-7-oxo-[1,2,4]triazolo[1,5-a]pyrimidin-4(7H)-yl)-N-(4-(trifluoromethyl)phenyl)acetamide], the GI50 in assay [1] and in assay [3] was over 10 µM throughout. The IC50 in assay [2] was determined as 0.4 µM.

With `COCC1CCN(c2nc3n(CC(=O)Nc4ccc(C(F)(F)F)cc4)c(C)c(N4CCN(C(C)=O)CC4)c(=O)n3n2)C1` (stereo not drawn) [Example 133, 2-(6-(4-acetylpiperazin-1-yl)-2-(3-(methoxymethyl)pyrrolidin-1-yl)-5-methyl-7-oxo-[1,2,4]triazolo[1,5-a]pyrimidin-4(7H)-yl)-N-(4-(trifluoromethyl)phenyl)acetamide], the GI50 in assay [1] was over 10 µM; in assay [3] it was 6 µM. The same molecule displayed an IC50 in assay [2] of 2 µM.

In the case of `Cc1c(N2CCN(C(=O)c3c(F)ccc(F)c3O)CC2)c(=O)n2nc(C3=CCOCC3)nc2n1CC(=O)Nc1ccc(C(F)(F)F)cc1` [Example 13, 2-(6-(4-(3,6-difluoro-2-hydroxybenzoyl)piperazin-1-yl)-2-(3,6-dihydro-2H-pyran-4-yl)-5-methyl-7-oxo-[1,2,4]triazolo[1,5-a]pyrimidin-4(7H)-yl)-N-(4-(trifluoromethyl)phenyl)acetamide], the results for the GI50 in assay [1] and in assay [3] were over 10 µM and 0.3 µM, respectively. In assay [2], this molecule returned an IC50 of 0.03 µM.

On to `CC(=O)N1CCN(c2c(C)n(CC(=O)Nc3ccc(C(F)(F)F)cc3)c3nc(C4=CCOCC4)nn3c2=O)CC1` [Example 69, 2-(6-(4-acetylpiperazin-1-yl)-2-(3,6-dihydro-2H-pyran-4-yl)-5-methyl-7-oxo-[1,2,4]triazolo[1,5-a]pyrimidin-4(7H)-yl)-N-(4-(trifluoromethyl)phenyl)acetamide], for which the results for the GI50 in assay [1] and in assay [3] were over 10 µM and 4 µM, respectively. Further, the IC50 in assay [2] was found to be 0.5 µM.

On to `CCc1c(N2CCN(C(C)=O)CC2)c(=O)n2nc(C3=CCCCO3)nc2n1CC(=O)Nc1ccc(C(F)(F)F)cc1` [Example 57, 2-(6-(4-acetylpiperazin-1-yl)-2-(3,4-dihydro-2H-pyran-6-yl)-5-ethyl-7-oxo-[1,2,4]triazolo[1,5-a]pyrimidin-4(7H)-yl)-N-(4-(trifluoromethyl)phenyl)acetamide], for which the GI50 was over 10 µM in assay [1] and 1 µM in assay [3]. Moreover, the 50% inhibitory concentration (IC50) in assay [2] was found to be 0.1 µM.

Consider `CCc1c(N2CCN(C(C)=O)CC2)c(=O)n2nc(C3=CCOCC3)nc2n1CC(=O)Nc1ccc(C(F)(F)F)cc1Cl` [Example 59, 2-(6-(4-acetylpiperazin-1-yl)-2-(3,6-dihydro-2H-pyran-4-yl)-5-ethyl-7-oxo-[1,2,4]triazolo[1,5-a]pyrimidin-4(7H)-yl)-N-(2-chloro-4-(trifluoromethyl)phenyl)acetamide], for which the GI50 was over 10 µM in assay [1] and 1 µM in assay [3]. For the same molecule, the IC50 in assay [2] came out at 0.3 µM.
